Experimental data reported in ChEMBL document CHEMBL3885881, “DrugMatrix”.

Species on record: Rattus norvegicus
Test: DrugMatrix - Regimen: Daily Repeat
Format: toxicity, organism-based, Sprague-Dawley
Set-up: regimen Daily Repeat, gender Male, age 6-8 weeks
Settings: in vivo, sc, route subcutaneous, […]; for ABSOLUTE BASOPHIL / ABSOLUTE EOSINOPHIL / ABSOLUTE LYMPHOCYTE / ABSOLUTE MONOCYTE / BASOPHIL / EOSINOPHIL / ERYTHROCYTE COUNT / HEMATOCRIT / HEMOGLOBIN / LEUKOCYTE COUNT / LYMPHOCYTE / MEAN CORPUSCULAR HEMOGLOBIN / MEAN CORPUSCULAR HEMOGLOBIN CONCENTRATION / MEAN CORPUSCULAR VOLUME / MONOCYTE / NEUTROPHIL / NUCLEATED RED BLOOD CELLS / PLATELET COUNT: tissue Blood; for ALANINE AMINOTRANSFERASE / ALBUMIN / ASPARTATE AMINOTRANSFERASE / BLOOD UREA NITROGEN / CARBON DIOXIDE / CHLORIDE / CHOLESTEROL / CREATINE PHOSPHOKINASE / CREATININE / GLUCOSE / LACTATE DEHYDROGENASE / LIPASE / PHOSPHORUS / POTASSIUM / SODIUM / TOTAL BILIRUBIN / TOTAL PROTEIN / URIC ACID: tissue Plasma
[1] = 64 mg/kg, 120 h, dose level Low, time 5 day
[2] = 636 mg/kg, 72 h, dose level High, time 3 day
[3] = 636 mg/kg, 120 h, dose level High, time 5 day

**Q.** With `Nc1ccc(S(N)(=O)=O)cc1` [SULFANILAMIDE] as the compound, how does the “ABSOLUTE BASOPHIL” value [1] read?
**A.** 0 CELLS/uL

**Q.** And the “ABSOLUTE EOSINOPHIL” value [1]?
**A.** 0 CELLS/uL

**Q.** And the “ABSOLUTE LYMPHOCYTE” value [1]?
**A.** 12536.33 CELLS/uL

**Q.** What about the “ABSOLUTE MONOCYTE” value [1] of the same compound?
**A.** 42.67 CELLS/uL

**Q.** And the BASOPHIL [1]?
**A.** 0%

**Q.** And the EOSINOPHIL [1]?
**A.** 0%

**Q.** What about the “ERYTHROCYTE COUNT” value [1] of the same compound?
**A.** 5.85 x10E6/uL

**Q.** What about the HEMATOCRIT [1] of the same compound?
**A.** 36.4%

**Q.** And the HEMOGLOBIN [1]?
**A.** 13.6 G/DL

**Q.** And the “LEUKOCYTE COUNT” value [1]?
**A.** 13.6 x10E3/uL

**Q.** And the LYMPHOCYTE [1]?
**A.** 92.67%

**Q.** What about the “MEAN CORPUSCULAR HEMOGLOBIN” value [1] of the same compound?
**A.** 23.33 pg

**Q.** What about the “MEAN CORPUSCULAR HEMOGLOBIN CONCENTRATION” value [1] of the same compound?
**A.** 37.4 G/DL

**Q.** And the “MEAN CORPUSCULAR VOLUME” value [1]?
**A.** 62.37 fL

**Q.** What about the MONOCYTE [1] of the same compound?
**A.** 0.33%

**Q.** And the NEUTROPHIL [1]?
**A.** 7%

**Q.** And the “NUCLEATED RED BLOOD CELLS” value [1]?
**A.** 0.33 /100WBC

**Q.** What about the “PLATELET COUNT” value [1] of the same compound?
**A.** 1318 x10E3/uL

**Q.** And the “ALANINE AMINOTRANSFERASE” value [1]?
**A.** 52 u/L

**Q.** What about the ALBUMIN [1] of the same compound?
**A.** 4.03 G/DL

**Q.** What about the “ASPARTATE AMINOTRANSFERASE” value [1] of the same compound?
**A.** 72 u/L

**Q.** What about the “BLOOD UREA NITROGEN” value [1] of the same compound?
**A.** 15.67 mg/dL

**Q.** And the “CARBON DIOXIDE” value [1]?
**A.** 26.33 mmol/L

**Q.** And the CHLORIDE [1]?
**A.** 105.33 MEQ/L

**Q.** And the CHOLESTEROL [1]?
**A.** 72.33 mg/dL

**Q.** And the “CREATINE PHOSPHOKINASE” value [1]?
**A.** 187 u/L

**Q.** And the CREATININE [1]?
**A.** 0.27 mg/dL

**Q.** And the GLUCOSE [1]?
**A.** 156.33 mg/dL

**Q.** And the “LACTATE DEHYDROGENASE” value [1]?
**A.** 102.33 u/L

**Q.** And the LIPASE [1]?
**A.** 11 u/L

**Q.** What about the PHOSPHORUS [1] of the same compound?
**A.** 12.07 mg/dL

**Q.** What about the POTASSIUM [1] of the same compound?
**A.** 7.26 MEQ/L

**Q.** And the SODIUM [1]?
**A.** 145.23 MEQ/L

**Q.** And the “TOTAL BILIRUBIN” value [1]?
**A.** 0.23 mg/dL

**Q.** And the “TOTAL PROTEIN” value [1]?
**A.** 5.9 G/DL

**Q.** And the “URIC ACID” value [1]?
**A.** 1.87 mg/dL

**Q.** And the “ABSOLUTE BASOPHIL” value [2]?
**A.** 0 CELLS/uL

**Q.** What about the “ABSOLUTE EOSINOPHIL” value [2] of the same compound?
**A.** 116 CELLS/uL

**Q.** And the “ABSOLUTE LYMPHOCYTE” value [2]?
**A.** 13223.33 CELLS/uL

**Q.** What about the “ABSOLUTE MONOCYTE” value [2] of the same compound?
**A.** 374 CELLS/uL

**Q.** And the BASOPHIL [2]?
**A.** 0%

**Q.** And the EOSINOPHIL [2]?
**A.** 0.67%

**Q.** And the “ERYTHROCYTE COUNT” value [2]?
**A.** 5.74 x10E6/uL

**Q.** And the HEMATOCRIT [2]?
**A.** 35.33%

**Q.** What about the HEMOGLOBIN [2] of the same compound?
**A.** 12.9 G/DL

**Q.** And the “LEUKOCYTE COUNT” value [2]?
**A.** 15.8 x10E3/uL

**Q.** And the LYMPHOCYTE [2]?
**A.** 83.67%

**Q.** And the “MEAN CORPUSCULAR HEMOGLOBIN” value [2]?
**A.** 22.47 pg

**Q.** And the “MEAN CORPUSCULAR HEMOGLOBIN CONCENTRATION” value [2]?
**A.** 36.5 G/DL

**Q.** And the “MEAN CORPUSCULAR VOLUME” value [2]?
**A.** 61.53 fL

**Q.** What about the MONOCYTE [2] of the same compound?
**A.** 2.33%

**Q.** What about the NEUTROPHIL [2] of the same compound?
**A.** 13.33%

**Q.** And the “NUCLEATED RED BLOOD CELLS” value [2]?
**A.** 0 /100WBC

**Q.** What about the “PLATELET COUNT” value [2] of the same compound?
**A.** 1297.33 x10E3/uL

**Q.** What about the “ALANINE AMINOTRANSFERASE” value [2] of the same compound?
**A.** 71 u/L

**Q.** And the ALBUMIN [2]?
**A.** 3.97 G/DL

**Q.** What about the “ASPARTATE AMINOTRANSFERASE” value [2] of the same compound?
**A.** 90.33 u/L

**Q.** What about the “BLOOD UREA NITROGEN” value [2] of the same compound?
**A.** 18.67 mg/dL

**Q.** What about the “CARBON DIOXIDE” value [2] of the same compound?
**A.** 25 mmol/L

**Q.** And the CHLORIDE [2]?
**A.** 103 MEQ/L

**Q.** What about the CHOLESTEROL [2] of the same compound?
**A.** 101.33 mg/dL

**Q.** What about the “CREATINE PHOSPHOKINASE” value [2] of the same compound?
**A.** 400.67 u/L

**Q.** What about the CREATININE [2] of the same compound?
**A.** 0.16 mg/dL

**Q.** And the GLUCOSE [2]?
**A.** 181.67 mg/dL

**Q.** And the “LACTATE DEHYDROGENASE” value [2]?
**A.** 100.67 u/L

**Q.** What about the LIPASE [2] of the same compound?
**A.** 10 u/L

**Q.** What about the PHOSPHORUS [2] of the same compound?
**A.** 12.37 mg/dL

**Q.** What about the POTASSIUM [2] of the same compound?
**A.** 5.81 MEQ/L

**Q.** What about the SODIUM [2] of the same compound?
**A.** 145.13 MEQ/L

**Q.** What about the “TOTAL BILIRUBIN” value [2] of the same compound?
**A.** 0.2 mg/dL

**Q.** And the “TOTAL PROTEIN” value [2]?
**A.** 5.67 G/DL

**Q.** What about the “URIC ACID” value [2] of the same compound?
**A.** 2.4 mg/dL

**Q.** What about the “ABSOLUTE BASOPHIL” value [3] of the same compound?
**A.** 0 CELLS/uL

**Q.** What about the “ABSOLUTE EOSINOPHIL” value [3] of the same compound?
**A.** 129.33 CELLS/uL

**Q.** And the “ABSOLUTE LYMPHOCYTE” value [3]?
**A.** 15741.33 CELLS/uL

**Q.** What about the “ABSOLUTE MONOCYTE” value [3] of the same compound?
**A.** 353 CELLS/uL

**Q.** What about the BASOPHIL [3] of the same compound?
**A.** 0%

**Q.** And the EOSINOPHIL [3]?
**A.** 0.67%

**Q.** What about the “ERYTHROCYTE COUNT” value [3] of the same compound?
**A.** 5.45 x10E6/uL

**Q.** And the HEMATOCRIT [3]?
**A.** 34.17%

**Q.** What about the HEMOGLOBIN [3] of the same compound?
**A.** 12.6 G/DL

**Q.** And the “LEUKOCYTE COUNT” value [3]?
**A.** 18.03 x10E3/uL

**Q.** What about the LYMPHOCYTE [3] of the same compound?
**A.** 86.33%

**Q.** What about the “MEAN CORPUSCULAR HEMOGLOBIN” value [3] of the same compound?
**A.** 23.13 pg

**Q.** And the “MEAN CORPUSCULAR HEMOGLOBIN CONCENTRATION” value [3]?
**A.** 36.87 G/DL

**Q.** And the “MEAN CORPUSCULAR VOLUME” value [3]?
**A.** 62.7 fL

**Q.** And the MONOCYTE [3]?
**A.** 2%

**Q.** What about the NEUTROPHIL [3] of the same compound?
**A.** 11%

**Q.** And the “NUCLEATED RED BLOOD CELLS” value [3]?
**A.** 0 /100WBC

**Q.** What about the “PLATELET COUNT” value [3] of the same compound?
**A.** 1550 x10E3/uL

**Q.** And the “ALANINE AMINOTRANSFERASE” value [3]?
**A.** 66 u/L

**Q.** What about the ALBUMIN [3] of the same compound?
**A.** 3.8 G/DL

**Q.** And the “ASPARTATE AMINOTRANSFERASE” value [3]?
**A.** 77 u/L

**Q.** What about the “BLOOD UREA NITROGEN” value [3] of the same compound?
**A.** 21.67 mg/dL

**Q.** And the “CARBON DIOXIDE” value [3]?
**A.** 26.67 mmol/L

**Q.** And the CHLORIDE [3]?
**A.** 105.33 MEQ/L

**Q.** What about the CHOLESTEROL [3] of the same compound?
**A.** 81.33 mg/dL

**Q.** What about the “CREATINE PHOSPHOKINASE” value [3] of the same compound?
**A.** 230.33 u/L

**Q.** What about the CREATININE [3] of the same compound?
**A.** 0.16 mg/dL

**Q.** And the GLUCOSE [3]?
**A.** 165.33 mg/dL

**Q.** What about the “LACTATE DEHYDROGENASE” value [3] of the same compound?
**A.** 107.33 u/L

**Q.** What about the LIPASE [3] of the same compound?
**A.** 9 u/L

**Q.** What about the PHOSPHORUS [3] of the same compound?
**A.** 12.53 mg/dL

**Q.** What about the POTASSIUM [3] of the same compound?
**A.** 7.05 MEQ/L

**Q.** And the SODIUM [3]?
**A.** 144.3 MEQ/L

**Q.** And the “TOTAL BILIRUBIN” value [3]?
**A.** 0.2 mg/dL

**Q.** And the “TOTAL PROTEIN” value [3]?
**A.** 5.63 G/DL

**Q.** And the “URIC ACID” value [3]?
**A.** 1.93 mg/dL
